Experimental findings from patent publication US11548870B2, “Compounds useful as inhibitors of helios protein” (Bristol-Myers Squibb Company, priority 2019, dated 2023) are described below.

As a reminder, the DC50 is the midpoint of the concentration-degradation curve. A low value points to degradation at low concentration. A word on the Dmax: it is the largest share of the target that was removed.

Several values for one entry are separate records, joined by “and”; a condition that tells them apart may be missing. Identical values can stand only once. Like-named read-outs stand apart in the source and are kept apart here. A value given as a limit tells only on which side of the number the result lay.

Assay [1] addresses T1, Ikaros (Homo sapiens, UniProt Q13422).
T1 construct: fluorescently labelled antibodies against Helios and Ikaros; endogenous in cells; host or cells: Jurkat cells
In words: Helios Cellular Degradation Assay, Ikaros readout (flow cytometry, Ikaros-Alexa488 antibody staining, 72 h). The assay is classed as cell-based. The settings on record: Jurkat cells, 72 h incubation, flow cytometry; for Dmax: Jurkat, read-out: Ikaros Dmax. The method, then:
(§1) Helios Cellular Degradation Assay
(§2) Jurkat cells were plated at 80,000 cells/well in 40 μL RPMI+10% FBS in a 384 well cell culture plate prior to using acoustic dispensing technology for adding compound of interest. Cell cultures were incubated for 72 h at 37° C. and 5% CO2. In order to facilitate analysis, cell cultures were spun down at 200 rpm for 5 min and the supernatant was discarded. After shaking the plate to dislodge the cell pellet, cells were resuspended in 50 μL of Fixation Buffer (eBioScience FoxP3 buffer set 0000) for 60 min at room temperature. After centrifuging and discarding the supernatant, cells were permeabilized with 50 μL of Permeabilization buffer (eBioScience FoxP3 buffer set 00-5523-00) for 10 min at room temperature. Following permeabilization, cells were spun down and the supernatant was replaced with 20 μL fluorescently labelled antibodies against Helios and Ikaros or corresponding Isotype controls in 1× Permeabilization buffer (Ikaros-Alexa488 [Biolegend, Cat #368408, 1:50], Helios-PE [CST, Cat #29360, 1:50]) and staining reactions were incubated for 1 h at room temperature; protected from light. Subsequently, 30 μL of 1× Permeabilization buffer was added prior to centrifuging the cells and discarding the supernatant. Stained cells were resuspended in 25 μL of flow cytometry staining buffer (PBS+0.2% BSA) and analyzed using an Intellicyt Ique Plus flow cytometer.
as §2, with “00-5523-00)” for “0000)”

The target in assay [2] is T2, Helios (Homo sapiens, UniProt Q96SW2+Q9UKS7).
T2 construct: fluorescently labelled antibodies against Helios and Ikaros; endogenous in cells; host or cells: Jurkat cells
T2 sequence (Q9UKS7 whole entry): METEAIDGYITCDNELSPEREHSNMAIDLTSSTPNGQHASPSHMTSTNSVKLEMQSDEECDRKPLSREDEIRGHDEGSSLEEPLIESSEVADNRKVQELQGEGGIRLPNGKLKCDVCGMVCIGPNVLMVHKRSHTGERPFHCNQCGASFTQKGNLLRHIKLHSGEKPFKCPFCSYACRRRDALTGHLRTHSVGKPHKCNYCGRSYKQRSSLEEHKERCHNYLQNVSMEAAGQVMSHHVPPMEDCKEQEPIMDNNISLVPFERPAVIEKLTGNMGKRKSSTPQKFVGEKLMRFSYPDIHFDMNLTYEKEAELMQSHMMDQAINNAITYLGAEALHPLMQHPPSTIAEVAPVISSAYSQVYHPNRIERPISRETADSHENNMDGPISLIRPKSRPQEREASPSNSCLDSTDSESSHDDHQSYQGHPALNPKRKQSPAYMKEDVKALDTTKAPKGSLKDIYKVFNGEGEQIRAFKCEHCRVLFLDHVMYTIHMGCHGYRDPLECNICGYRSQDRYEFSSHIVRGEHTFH
T2 sequence (Q96SW2 whole entry): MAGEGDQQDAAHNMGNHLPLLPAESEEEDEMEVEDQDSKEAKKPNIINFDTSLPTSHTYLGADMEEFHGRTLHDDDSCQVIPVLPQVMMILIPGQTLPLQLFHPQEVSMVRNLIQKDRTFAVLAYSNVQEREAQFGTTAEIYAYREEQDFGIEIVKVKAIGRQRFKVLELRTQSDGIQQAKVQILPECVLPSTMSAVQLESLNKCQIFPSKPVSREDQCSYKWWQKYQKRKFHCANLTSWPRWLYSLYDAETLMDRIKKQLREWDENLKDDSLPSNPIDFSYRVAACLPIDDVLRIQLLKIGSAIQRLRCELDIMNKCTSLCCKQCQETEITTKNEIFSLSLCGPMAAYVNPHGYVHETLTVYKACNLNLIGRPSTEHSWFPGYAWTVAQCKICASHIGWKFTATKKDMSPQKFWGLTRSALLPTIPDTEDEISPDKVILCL
T2 sequence (Q16531 whole entry partner): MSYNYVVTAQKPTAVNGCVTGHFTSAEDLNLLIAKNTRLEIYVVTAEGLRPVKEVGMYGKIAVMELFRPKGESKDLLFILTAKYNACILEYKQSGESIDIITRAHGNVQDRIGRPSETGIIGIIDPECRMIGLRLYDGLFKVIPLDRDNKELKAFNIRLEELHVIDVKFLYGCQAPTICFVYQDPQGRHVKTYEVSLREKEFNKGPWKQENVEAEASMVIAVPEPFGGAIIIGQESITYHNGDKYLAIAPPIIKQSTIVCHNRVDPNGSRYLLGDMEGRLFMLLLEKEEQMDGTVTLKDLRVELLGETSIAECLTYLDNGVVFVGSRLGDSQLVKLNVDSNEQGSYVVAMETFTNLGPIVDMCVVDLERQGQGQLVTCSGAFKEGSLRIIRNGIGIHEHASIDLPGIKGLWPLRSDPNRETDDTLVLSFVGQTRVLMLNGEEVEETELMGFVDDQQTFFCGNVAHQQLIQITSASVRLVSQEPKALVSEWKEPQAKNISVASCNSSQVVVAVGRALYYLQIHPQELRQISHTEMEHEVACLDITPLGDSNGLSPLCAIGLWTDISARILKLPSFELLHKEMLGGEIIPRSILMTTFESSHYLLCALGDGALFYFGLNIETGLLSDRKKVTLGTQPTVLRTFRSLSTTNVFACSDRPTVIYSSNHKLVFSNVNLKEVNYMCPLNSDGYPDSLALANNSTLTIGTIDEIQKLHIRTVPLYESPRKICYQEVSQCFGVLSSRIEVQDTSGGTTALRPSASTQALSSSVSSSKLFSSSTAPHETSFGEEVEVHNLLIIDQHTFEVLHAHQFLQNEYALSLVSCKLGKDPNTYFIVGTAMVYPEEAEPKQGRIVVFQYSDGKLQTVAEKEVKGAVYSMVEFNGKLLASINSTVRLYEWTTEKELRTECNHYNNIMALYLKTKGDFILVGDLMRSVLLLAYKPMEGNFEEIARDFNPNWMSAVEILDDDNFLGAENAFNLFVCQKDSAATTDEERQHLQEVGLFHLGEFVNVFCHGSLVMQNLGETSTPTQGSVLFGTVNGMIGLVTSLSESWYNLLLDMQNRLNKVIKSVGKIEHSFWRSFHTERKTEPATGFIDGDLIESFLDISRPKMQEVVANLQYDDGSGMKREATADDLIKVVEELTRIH
In words: Helios Cellular Degradation Assay (flow cytometry, Helios-PE antibody staining, 72 h). The following applies: for Dmax: Jurkat, read-out: Helios Dmax. It counts as cell-based. The procedure: as §1, §2
as §2, with “00-5523-00)” for “0000)”
On the technique in general: A flow cytometer gives signals particle by particle.

The mark [3] stands for this setting: Jurkat cells, 72 h incubation, flow cytometry.

T1 sequence (Q96SW2 whole entry partner): as the sequence (Q96SW2 whole entry) above
T1 sequence (Q16531 whole entry partner): as the sequence (Q16531 whole entry partner) above
T1 sequence (Q13422 whole entry): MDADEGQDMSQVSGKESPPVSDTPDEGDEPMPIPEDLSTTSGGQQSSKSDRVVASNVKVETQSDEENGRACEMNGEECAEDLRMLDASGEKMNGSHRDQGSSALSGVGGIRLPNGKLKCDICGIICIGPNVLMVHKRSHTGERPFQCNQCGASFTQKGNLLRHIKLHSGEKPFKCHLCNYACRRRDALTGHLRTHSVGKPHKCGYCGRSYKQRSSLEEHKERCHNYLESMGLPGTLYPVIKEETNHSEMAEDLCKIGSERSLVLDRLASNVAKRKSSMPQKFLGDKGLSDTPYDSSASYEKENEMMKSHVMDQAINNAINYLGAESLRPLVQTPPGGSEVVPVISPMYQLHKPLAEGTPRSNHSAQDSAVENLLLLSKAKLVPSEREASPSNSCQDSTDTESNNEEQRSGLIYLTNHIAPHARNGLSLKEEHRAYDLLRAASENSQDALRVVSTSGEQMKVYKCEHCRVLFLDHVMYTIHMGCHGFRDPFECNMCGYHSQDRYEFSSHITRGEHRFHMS

As for “3-(1-oxo-5-(4-((4-(pyridin-2-yl)piperidin-1-yl)methyl)pyridin-2-yl)isoindolin-2-yl)piperidine-2,6-dione [Example 15]”, in assay [1], the DC50 was > 10 µM and the “Ikaros Dmax” value is given as 8%. For the same molecule, in assay [2] (setting [3]), the DC50 is > 10 µM and the “Helios Dmax” value is 5%.

Consider “3-(1-oxo-5-(4-((4-(pyrimidin-2-yl) piperidin-1-yl)methyl)pyridin-2-yl)isoindolin-2-yl)piperidine-2,6-dione [Example 18]”, for which, in assay [1], the 50% degradation concentration (DC50) was > 10 µM and the “Ikaros Dmax” value is reported as 19%. Further, in assay [2] (setting [3]), the DC50 was > 10 µM and the “Helios Dmax” value was 21%.

Take “3-(5-(4-(((cyclobutylmethyl)(methyl)amino)methyl)pyridin-2-yl)-1-oxoisoindolin-2-yl)piperidine-2,6-dione [Example 178]”: in assay [1], the DC50 was > 10 µM and the “Ikaros Dmax” value is 15%. In addition, in assay [2] (setting [3]), the DC50 stood at 0.131 µM and the “Helios Dmax” value is 82%.

Regarding `O=C1CCC(N2Cc3cc(-c4cc(CN5CCC5c5ccccc5)ccn4)ccc3C2=O)C(=O)N1` (single isomer, unassigned) [Example 204, 3-(1-oxo-5-(4-((2-phenylazetidin-1-yl)methyl)pyridin-2-yl)isoindolin-2-yl)piperidine-2,6-dione], in assay [1], the DC50 is > 10 µM. Further, in assay [2] (setting [3]), the half-maximal degradation concentration (DC50) is > 10 µM; the “Helios Dmax” value was 2.42% and 2.4%.

`O=C1CCC(N2Cc3cc(-c4cc(CN5CCC5c5ccccc5)ccn4)ccc3C2=O)C(=O)N1` (single isomer, unassigned) [Example 205, 3-(1-oxo-5-(4-((2-phenylazetidin-1-yl)methyl)pyridin-2-yl)isoindolin-2-yl)piperidine-2,6-dione]: in assay [1], the DC50 was > 10 µM; the “Ikaros Dmax” value was 8.15% and 6%. Moreover, in assay [2] (setting [3]), the DC50 is > 10 µM.

As to `CN(C)Cc1ccnc(-c2ccc3c(c2)CN(C2CCC(=O)NC2=O)C3=O)c1` (stereo not shown) [Example 1, 3-(5-{4-[(Dimethylamino)methyl]pyridin-2-yl}-1-oxo-2,3-dihydro-1H-isoindol-2-yl) piperidine-2,6-dione], in assay [1], the DC50 was > 10 µM and the Dmax was found to be 9%. In addition, in assay [2] (setting [3]), half-maximal degradation (DC50) was put at 0.025 µM and the Dmax stood at 84%.

With `O=C1CCC(N2Cc3cc(-c4cc(CNCc5ccccc5)ccn4)ccc3C2=O)C(=O)N1` (stereo not shown) [Example 2, 3-(5-(4-((benzylamino)methyl)pyridin-2-yl)-1-oxoisoindolin-2-yl)piperidine-2,6-dione], the DC50 in assay [1] is > 10 µM; in assay [2] (setting [3]) it was 0.011 µM. The results for the greatest degradation seen (Dmax) in assay [1] and in assay [2] (setting [3]) were 16% and 92%, respectively.

Turning to `CCCN(C)Cc1ccnc(-c2ccc3c(c2)CN(C2CCC(=O)NC2=O)C3=O)c1` (stereo not shown) [Example 3, 3-(5-(4-((methyl(propyl)amino)methyl)pyridin-2-yl)-1-oxoisoindolin-2-yl)piperidine-2,6-dione], in assay [1], the DC50 was > 10 µM and the Dmax was found to be 3%. Moreover, in assay [2] (setting [3]), the DC50 came to 0.038 µM and the Dmax worked out at 87%.

With `CCN(C)Cc1ccnc(-c2ccc3c(c2)CN(C2CCC(=O)NC2=O)C3=O)c1` (stereo not shown) [Example 4, 3-(5-(4-((ethyl(methyl)amino)methyl)pyridin-2-yl)-1-oxoisoindolin-2-yl)piperidine-2,6-dione], in assay [1], the 50% degradation concentration (DC50) is > 10 µM and the Dmax amounted to 8%. Besides, in assay [2] (setting [3]), half-maximal degradation (DC50) was put at 0.096 µM and the Dmax was 84%.

As for `CCN(C)Cc1ccnc(-c2ccc3c(c2)CN(C2CCC(=O)NC2=O)C3=O)c1` (stereo not shown) [Example 5], in assay [1], the DC50 is > 10 µM and the “Ikaros Dmax” value was found to be 5%. In addition, in assay [2] (setting [3]), it took 0.044 µM to reach half-maximal degradation (DC50) and the “Helios Dmax” value is 90%.

For `CCN(C)Cc1ccnc(-c2ccc3c(c2)CN(C2CCC(=O)NC2=O)C3=O)c1` (stereo not shown) [Example 6], in assay [1], the DC50 was > 10 µM and the “Ikaros Dmax” value came out at 6%. In assay [2] (setting [3]), the DC50 was 0.028 µM and the “Helios Dmax” value is listed as 86%.

Take `COCCN(C)Cc1ccnc(-c2ccc3c(c2)CN(C2CCC(=O)NC2=O)C3=O)c1` (stereo not shown) [Example 7, 3-(5-(4-(((2-methoxyethyl)(methyl)amino)methyl)pyridin-2-yl)-1-oxoisoindolin-2-yl)piperidine-2,6-dione]: in assay [1], the DC50 was > 10 µM and the Dmax came out at 20%. Further, in assay [2] (setting [3]), the DC50 was 0.138 µM and the Dmax is 85%.

On to `O=C1CCC(N2Cc3cc(-c4cc(CN5CCCC5)ccn4)ccc3C2=O)C(=O)N1` (stereo not shown) [Example 8, 3-(1-oxo-5-(4-(pyrrolidin-1-ylmethyl)pyridin-2-yl)isoindolin-2-yl)piperidine-2,6-dione], for which the 50% degradation concentration (DC50) in assay [1] was > 10 µM; in assay [2] (setting [3]) it was 0.026 µM. The Dmax worked out at 18% in assay [1] and 85% in assay [2] (setting [3]).

With `CCCCN(C)Cc1ccnc(-c2ccc3c(c2)CN(C2CCC(=O)NC2=O)C3=O)c1` (stereo not shown) [Example 9, 3-(5-(4-((butyl(methyl)amino)methyl)pyridin-2-yl)-1-oxoisoindolin-2-yl)piperidine-2,6-dione], the DC50 is > 10 µM in assay [1] and 0.167 µM in assay [2] (setting [3]). The Dmax came to 4% in assay [1] and 87% in assay [2] (setting [3]).

In the case of `CCCN(Cc1ccnc(-c2ccc3c(c2)CN(C2CCC(=O)NC2=O)C3=O)c1)CC1CC1` (stereo not shown) [Example 10, 3-(5-(4-(((cyclopropylmethyl)(propyl)amino)methyl)pyridin-2-yl)-1-oxoisoindolin-2-yl)piperidine-2,6-dione], the DC50 in assay [1] is > 10 µM; in assay [2] (setting [3]), 0.183 µM. Moreover, the Dmax was 9% in assay [1] and 67% in assay [2] (setting [3]).

`O=C1CCC(N2Cc3cc(-c4cc(CN5CCC(n6c(=O)[nH]c7ccccc76)CC5)ccn4)ccc3C2=O)C(=O)N1` (stereo not shown) [Example 11, 3-(1-oxo-5-(4-((4-(2-oxo-2,3-dihydro-1H-benzo[d]imidazol-1-yl)piperidin-1-yl)methyl)pyridin-2-yl)isoindolin-2-yl)piperidine-2,6-dione]: the DC50 in assay [1] was > 10 µM; in assay [2] (setting [3]), 0.573 µM. Further, the Dmax was 7% in assay [1] and 59% in assay [2].

Consider `O=C1CCC(N2Cc3cc(-c4cc(CN5CCN(Cc6ccc7c(c6)OCO7)CC5)ccn4)ccc3C2=O)C(=O)N1` (stereo not shown) [Example 12, 3-(5-(4-((4-(benzo[d][1,3]dioxol-5-ylmethyl)piperazin-1-yl)methyl)pyridin-2-yl)-1-oxoisoindolin-2-yl)piperidine-2,6-dione], for which the DC50 in assay [1] and in assay [2] (setting [3]) was > 10 µM throughout. Further, the Dmax came to 16% in assay [1] and 37% in assay [2] (setting [3]).

With `CCN(CC)C(=O)C1CCCN(Cc2ccnc(-c3ccc4c(c3)CN(C3CCC(=O)NC3=O)C4=O)c2)C1` (stereo not shown) [Example 13, 1-((2-(2-(2,6-dioxopiperidin-3-yl)-1-oxoisoindolin-5-yl)pyridin-4-yl)methyl)-N,N-diethylpiperidine-3-carboxamide], in assay [1], the DC50 is > 10 µM and the Dmax came out at 8%. Moreover, in assay [2] (setting [3]), the DC50 amounted to 0.2 µM and the Dmax was 67%.

In the case of `CC1CCN(Cc2ccnc(-c3ccc4c(c3)CN(C3CCC(=O)NC3=O)C4=O)c2)CC1` (stereo not shown) [Example 14, 3-(5-(4-((4-methylpiperidin-1-yl)methyl)pyridin-2-yl)-1-oxoisoindolin-2-yl)piperidine-2,6-dione], the results for the DC50 in assay [1] and in assay [2] (setting [3]) were > 10 µM and 0.036 µM, respectively. Moreover, the values for the Dmax in assay [1] and in assay [2] (setting [3]) were 16% and 80%, respectively.

For `CN(CCc1ccccn1)Cc1ccnc(-c2ccc3c(c2)CN(C2CCC(=O)NC2=O)C3=O)c1` (stereo not shown) [Example 16, 3-(5-(4-((methyl(2-(pyridin-2-yl)ethyl)amino)methyl)pyridin-2-yl)-1-oxoisoindolin-2-yl) piperidine-2,6-dione], in assay [1], the DC50 was > 10 µM and the Dmax came to 12%. Also, in assay [2] (setting [3]), the half-maximal degradation concentration (DC50) came to 0.788 µM and the Dmax amounted to 63%.

Regarding `O=C1CCC(N2Cc3cc(-c4cc(CN5CCC(N6CCCCC6)CC5)ccn4)ccc3C2=O)C(=O)N1` (stereo not shown) [Example 17, 3-(5-(4-([1,4′-bipiperidin]-1′-ylmethyl)pyridin-2-yl)-1-oxoisoindolin-2-yl)piperidine-2,6-dione], in assay [1], the DC50 is > 10 µM and the maximal degradation (Dmax) stood at 11%. In assay [2] (setting [3]), the DC50 is > 10 µM and the greatest degradation seen (Dmax) was determined as 16%.
